Measured values: publication PMC6222997, “Cloning, purification, and characterization of an organic solvent-tolerant chitinase, MtCh509, from Microbulbifer thermotolerans DAU221” (Biotechnology for Biofuels, 2018)

Target: T1, MtCh509 (Microbulbifer thermotolerans, UniProt A0A143HNF3)
T1 construct: gene A3224_11035; full-length precursor 509 aa; cloned without signal peptide, N-terminal His6 (pCold I), E. coli BL21(DE3); ~60 kDa; GH18 catalytic domain plus ChtBD3
Test: TLC of hydrolysis products
Type: biochemical
Conditions: 50 mM citrate buffer pH 5.0, 55 °C; 0.3 μg enzyme

T1 sequence (A0A143HNF3 entry or part of it): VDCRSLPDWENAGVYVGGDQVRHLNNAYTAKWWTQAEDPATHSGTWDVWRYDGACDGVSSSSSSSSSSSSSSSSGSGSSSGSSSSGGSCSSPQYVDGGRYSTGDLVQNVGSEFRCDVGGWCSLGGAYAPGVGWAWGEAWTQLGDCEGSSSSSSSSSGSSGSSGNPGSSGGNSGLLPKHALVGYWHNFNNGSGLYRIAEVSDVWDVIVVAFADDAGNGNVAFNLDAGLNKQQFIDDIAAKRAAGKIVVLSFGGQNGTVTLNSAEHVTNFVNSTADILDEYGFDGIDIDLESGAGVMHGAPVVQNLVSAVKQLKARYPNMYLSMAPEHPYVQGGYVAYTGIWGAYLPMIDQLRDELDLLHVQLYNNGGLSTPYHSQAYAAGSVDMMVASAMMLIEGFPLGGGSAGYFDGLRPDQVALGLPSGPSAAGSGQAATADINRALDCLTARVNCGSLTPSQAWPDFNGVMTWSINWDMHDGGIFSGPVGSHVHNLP

## CC(=O)N[C@H]1[C@H](O[C@H]2[C@H](O)[C@@H](NC(C)=O)[C@H](O[C@H]3[C@H](O)[C@@H](NC(C)=O)C(O)O[C@@H]3CO)O[C@@H]2CO)O[C@H](CO)[C@@H](O[C@@H]2O[C@H](CO)[C@@H](O[C@@H]3O[C@H](CO)[C@@H](O[C@@H]4O[C@H](CO)[C@@H](O)[C@H](O)[C@H]4NC(C)=O)[C@H](O)[C@H]3NC(C)=O)[C@H](O)[C@H]2NC(C)=O)[C@@H]1O (stereo partly shown) [NAG6]
  TLC of hydrolysis products: NAG6 (Fig. 5E) was finally degraded to NAG3 and NAG2
